Test results taken from patent US20120321584A1, “PROCESSES FOR PREPARING AMINE SALTS OF KMUP-3 AND USE THEREOF” (KAOHSIUNG MEDICAL UNIVERSITY, priority 2011, published 2012).

Columns and labels:
PKCα = PKCα translocation of beating left atrium; format: cell-based, guinea-pig; conditions: KMUP-3 1 μM, left atrium cells
Description: To determine the effect of KMUP-3 or KMUP-3 amine salt on PKCa translocation, isolated left beating atrium was incubated with KMUP-3 or KMUP-3 amine salt for 30 minutes (0.1-10 μM). In brief, frozen left atrium was pulverized to a fine powder at the temperature of liquid nitrogen for preparation of cytosolic and membrane fractions. Isolated left atrium tissues were then homogenized by a sonicator (XL-2020, Heat Systems Ultrasonic, Plainview, N.Y., USA) at 4 in 1 ml of homogenization buffer containing 20 mM Tris-HCl (pH 7.5), 1 mM dithiothreitol (DTT), 5 mM EGTA, 2 mM EDTA, 0.5 mM PMSF, 20 μM leupeptin and 20 μM aprotinin. The cytosol fractions were obtained by collecting the supernatants after centrifuging the cells at 100,000×g for 45 minutes at 4. The pellets were resonicated in the homogenizing buffer with 1% Triton X-100, centrifuged again at 100,000×g for 45 minutes at 4, and the supernatants collected as membrane fractions. The extracts for cytosol and membrane fractions were denatured by heating at for 10 minutes in sampling buffer, and an aliquot containing 20 μg of total protein was subjected to a 10% SDS-polyacrylamide gel electrophoresis. […] Protein was detected with horseradish peroxidase (HRP) conjugated secondary antibody (BD Transduction Laboratories). […] The immunoreactive bands were detected by chemiluminescence (ECL) reagents (PerkinElmer Life Sciences, Inc).

cAMP = cAMP in neonatal myocytes; format: cell-based, rat
Description: eNOS/p-NOS and cAMP/cGMP in neonatal myocytes. To determine the role of the NO/cGMP-pathway in heart, neonatal rat myocyte protein was extracted followed by Western blotting to measure the expression of eNOS, phosphorylated eNOS (p-eNOS), cAMP, and cGMP (FIG. 14 A-14 B and FIG. 15 A-15 B). KMUP-3 increased eNOS and p-eNOS in neonatal rat cardiomyocytes and the effect was reduced by L-NAME (100 μM)-pretreatment (FIG. 14A and FIG. 14B). KMUP-3 increased both cAMP and cGMP.

PKA = PKA expression in electrically-stimulated left atria, Western blotting; format: cell-based, guinea-pig
Description: (§1) Protein extraction and Western blotting analysis. Briefly, after incubation with test agents in an organ bath, isolated beating atrium was frozen and pulverized to a fine powder at the temperature of liquid nitrogen. Atrium powders were then homogenized in protein extraction reagent (Pierce Biotechnology, Inc., Rockford, Ill.) by sonication. The samples were sonicated 10 sec three times and centrifuged at 13,000 rpm at 4° C. for 30 min. The protein concentrations of supernatants were determined by using bovine serum albumin as the standard. The cell extracts were then boiled in a ratio of 4:1 with sample buffer (Tris 100 mM, pH 6.8; glycerol 20%, Sodium dodecyl sulfate (SDS) 4% and bromophenol blue 0.2%). Electrophoresis was performed using 10% SDS-PAGE and transferred to nitrocellulose membranes (Millipore Corp., Billerica, Mass.). The membrane was blocked with Tris-buffered saline (TBS; 20 mM Tris and 137 mM NaCl, pH 7.6) containing 0.1% Tween 20 (TTBS) and 5% nonfat milk at room temperature for 1 h, washed with TTBS, and then incubated overnight at 4° C. in the appropriate primary antibody for PKARI, RhoA, ROCKII, p-CIP-17, CPI-17 and PKG1α1β. The membranes were washed in TTBS before being incubated with horseradish peroxidase-conjugated antibody against mouse, goat, or rabbit IgG for 1 hr. Membranes were then washed in TTBS and developed with the enhanced chemiluminescence for the detection of the specific antigen. The intensity of the bands was measured by densitometry. eNOS or phosphorylated eNOS were extracted from cell culture of neonatal myocytes, PA ring and aortic ring (2-3 mm) of rats and measured by Western blotting analysis.
(§2) PK, ROCKII and CIP-17 expression and pretreatment of beating left atrium. To examine whether KMUP-3 or KMUP-3 amine salt affects the protein expression in beating atrium, PKA, ROCKII, PKG and phosphorylated CIP-17 was determined by Western blotting, respectively. […]

[1] = tested on: isolated spontaneously beating right atrium; assay: Spontaneously beating right atrium, organ bath; format: cell-based, guinea-pig; conditions: 0.1-30 μM
Description: Organ bath experiments and tissue procurement. Guinea-pigs were killed by a blow on the head. Their hearts were quickly excised and trimmed of excess tissues. The atrium was carefully removed and placed at room temperature (20˜25° C.) in a Krebs solution of the following composition (mM): NaCl 113, KCl 4.8, CaCl2 2.2, KH2PO4 1.2, MgCl2 1.2, NaHCO3 25, dextrose 11.0; bubbled with a 95% O2+5% CO2 mixture, followed by separation of right and left atrium for subsequent experiments.
Spontaneously beating right atrium was dissected from the heart and mounted in a 10 ml organ bath with one end fixed and the other end connected to a force displacement transducer (Grass, Model FT03). The frequency of contraction was measured on a separate channel by a tachometer (Coulbourn, Model S77-26) connected to a high-speed videograph (Coulbourn, AT L19-69). These experiments were carried out at 32.5° C. in Krebs solution. The atria strip was pre-stretched to a baseline tension of 0.5 g and equilibrated for 90 min in aerated (95% O2+5% CO2) Krebs solution before the experimental protocols were initiated. The atria were then allowed a 30-60 min washout period to re-stabilize. KMUP-3 or KMUP-3 amine salt (0.1, 1.0, 10, 100 μM) were then cumulatively added to the organ bath. […]

RhoA = RhoA expression in electrically-stimulated left atria, Western blotting; format: cell-based, guinea-pig; conditions: KMUP-3 0.1-10 μM
Description: as §1, with “The membrane was blocked with Tris-buffered saline (TBS; 20 mM Tris and 137 mM NaCl, pH 7.6) containing 0.1% Tween 20 (TTBS) and 5% nonfat milk at room temperature for 1 h, washed with TTBS, and then incubated overnight at 4° C. in the appropriate primary antibody for PKARI, RhoA, ROCKII, p-CIP-17, CPI-17 and PKG1α1β. The membranes were washed in TTBS before being incubated with horseradish peroxidase-conjugated antibody against mouse, goat, or rabbit IgG for 1 hr. Membranes were then washed in TTBS and developed with the enhanced chemiluminescence for the detection of the specific antigen.” left out
as §2

`Cn1c(=O)c2c(ncn2CCN2CCN(c3ccc([N+](=O)[O-])cc3)CC2)n(C)c1=O` [KMUP-3, 7-[2-[4-(4-nitrobenzene)piperazinyl]ethyl]-1,3-dimethylxanthine] was tested, and the “Translocation of PKCα from cytosol to membrane” value (PKCα) was “significantly increased”, the cAMP (cAMP) was “increased” and the PKA expression (PKA; FIG. 13B, concentration not given) was “significantly increased”. For the same compound, the PKA expression (PKA; KMUP-3 0.1-10 μM) was “significantly increased”, the “Chronotropic effect (beating frequency)” value [1] was “decreased” and the “Inotropic effect (contraction force)” value [1] was “concentration-dependently increased”. For the same compound, the RhoA expression (RhoA) was “significantly increased”.
